# According to patent US20250230161A1, “POLYCYCLIC CAP-DEPENDENT ENDONUCLEASE INHIBITORS FOR TREATING OR PREVENTING INFLUENZA” (Merck Sharp & Dohme LLC, priority 2021, published 2025):
# Test system: FLU A (PR/8/34)
# Assay: Flu A Neuraminidase Antiviral Assay
# Type: cell-based
# Conditions: MDCK cells infected with FLU A (PR/8/34), 48 h incubation, NA activity by MUNANA fluorescence
row,Structure (SMILES),EC50 [µM]
1,O=C1c2c(O)c(=O)ccn2N2CN1CCCCC2c1ccccc1 (centres unmarked) [Compound 1],0.143
2,O=C1c2c(O)c(=O)ccn2N2CN1CCCCC2c1ccccc1Cl (centres unmarked) [Compound 2],0.072
3,O=C1c2c(O)c(=O)ccn2N2CN1CCCCC2c1cccc(Cl)c1 (centres unmarked) [Compound 3],0.133
4,O=C1c2c(O)c(=O)ccn2N2CN1CCCCC2c1ccc(Cl)cc1 (centres unmarked) [Compound 4],1.69
5,O=C1c2c(O)c(=O)ccn2N2CN1CCCCC2c1ccccc1Br (centres unmarked) [Compound 5],0.092
6,O=C1c2c(O)c(=O)ccn2N2CN1CC(F)CCC2c1ccccc1 (centres unmarked) [Compound 9],0.578
7,O=C1c2c(O)c(=O)ccn2N2CN1CCCCC2c1cccc2ccccc12 (centres unmarked) [Compound 10],0.577
8,O=C1c2c(O)c(=O)ccn2N2CN1CCCCC2c1cccc2ccc(F)cc12 (centres unmarked) [Compound 11],0.966
9,O=C1c2c(O)c(=O)ccn2N2CN1CCCCC2c1ccc2ccccc2c1 (centres unmarked) [Compound 12],6.29
10,CC1(c2ccccc2)CCCCN2CN1n1ccc(=O)c(O)c1C2=O (centres unmarked) [Compound 13],0.31
11,O=C1c2c(O)c(=O)ccn2N2CN1CCCCCC2c1ccccc1 (centres unmarked) [Compound 14],0.927
12,CC1CCCC(c2ccccc2)N2CN1C(=O)c1c(O)c(=O)ccn12 (centres unmarked) [Compound 15],0.46
13,O=C1c2c(O)c(=O)ccn2N2CN1C(C1CC1)CCCC2c1ccccc1 (centres unmarked) [Compound 16],0.164
14,O=C1c2c(O)c(=O)ccn2N2CN1C/C=C\CC2c1ccccc1 (centres unmarked) [Compound 17],0.193
15,O=C1c2c(O)c(=O)ccn2N2CN1C/C=C\CC2c1cccc2ccc(F)cc12 (centres unmarked) [Compound 18],1.46
16,CC1/C=C\CC(c2ccccc2)N2CN1C(=O)c1c(O)c(=O)ccn12 (centres unmarked) [Compound 19],0.229
17,O=C1c2c(O)c(=O)ccn2N2CN1C(C1CC1)/C=C\CC2c1ccccc1 (centres unmarked) [Compound 20],0.171
18,CC1N2CCCCC(c3ccccc3)N1n1ccc(=O)c(O)c1C2=O (centres unmarked) [Compound 21],0.098
19,CC1N2CCCCCC(c3ccccc3)N1n1ccc(=O)c(O)c1C2=O (centres unmarked) [Compound 22],0.228
20,CC1CCN2CN(C(c3ccccc3)C1)n1ccc(=O)c(O)c1C2=O (centres unmarked) [Compound 23],4.41
